Experiments:
Assay type in all cases: in vivo
[1] = test system: Pharbitis purpurea (PHBPU); experiment: Post-emergence herbicidal action, greenhouse pot test; conditions: Ipomoea purpurea, 504 h, read-out: Post-emergence action against PHBPU in %
Summary of the method: (§1)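 Activity was scored by eye about 3 weeks after treatment against untreated plants, where 100% means dead plants and 0% means no difference. Plants at the one-leaf stage received a foliar spray of WP or EC formulations in water plus 0.5% additive (600 l/ha, up to 20 g/ha). Plants were grown in sandy loam pots in a greenhouse for 2–3 weeks before spraying.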

[2] = test system: Polygonum convolvulus (POLCO); experiment: as above; conditions: Fallopia convolvulus, 504 h, read-out: Post-emergence action against POLCO in %
Summary of the method: as §1

[3] = test system: Abutilon theophrasti (ABUTH); experiment: as above; conditions: Abutilon theophrasti, 504 h, rated visually after about 3 weeks vs untreated controls, 100% = plants have died
Summary of the method: as §1

Veronica persica (VERPE) = experiment: as above; conditions: Veronica persica, 504 h, read-out: Post-emergence action against VERPE
Summary of the method: as §1

Stellaria media (STEME) = experiment: as above
Summary of the method: as §1

Viola tricolor (VIOTR) = experiment: as above; conditions: Viola tricolor, 504 h, read-out: Post-emergence action against VIOTR
Summary of the method: as §1

[4] = test system: Amaranthus retroflexus (AMARE); experiment: as above; conditions: Amaranthus retroflexus, 504 h, rated visually after about 3 weeks vs untreated controls, 100% = plants have died
Summary of the method: as §1

Setaria viridis (SETVI) = experiment: Post-emergence herbicidal action, greenhouse pot test (also comparative test C); conditions: Setaria viridis, 504 h
Summary of the method: (§2)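 Greenhouse pot plants in sandy loam were sprayed post-emergence at the one-leaf stage (2–3 weeks after sowing) with WP or EC formulations plus 0.5% additive at 600 l/ha water. Activity was rated visually after about 3 weeks versus untreated controls (100% = dead, 0% = like control); rates were 20 g/ha or less, and 5 g/ha or less in the comparative test.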

[5] = test system: Echinochloa crus-galli (ECHCG); experiment: as above; conditions: Echinochloa crus-galli, 504 h, dosage 20 g/ha, read-out: Post-emergence action against ECHCG in %
Summary of the method: as §2

[6] = test system: Alopecurus myosuroides (ALOMY); experiment: as above; conditions: Alopecurus myosuroides, 504 h, 20 g/ha, rated visually after about 3 weeks vs untreated controls, 100% = plants have died, read-out: Post-emergence action at 20 g/ha against ALOMY in %
Summary of the method: as §2

[7] = test system: Matricaria inodora (MATIN); experiment: as above; conditions: Tripleurospermum inodorum, 504 h, read-out: Post-emergence action against MATIN in %
Summary of the method: as §2

Oryza sativa (ORYSA) = experiment: Post-emergence crop plant compatibility, greenhouse pot test (also comparative test C); conditions: vs untreated controls
Summary of the method: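 Visual damage versus untreated plants (0% = like control, 100% = plants died) was scored about 3 weeks after a post-emergence spray in greenhouse pots. Treatment: one-leaf stage, WP or EC in water at 600 l/ha with 0.5% additive; a/b/c mark different dosages on the same crop.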

Zea mays (ZEAMX) = experiment: Post-emergence crop plant compatibility, greenhouse pot test; conditions: vs untreated controls
Summary of the method: (§3)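 Visual % damage vs untreated controls, scored ~3 weeks post-spray (100% = dead, 0% = as control). Plants in sandy loam, greenhouse; treated at one-leaf stage, 2–3 wk after sowing. WP/EC, aqueous, 0.5% additive, 600 l/ha. Suffixes a/b/c = different dosages.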

Glycine max (GLXMA) = experiment: as above
Summary of the method: as §3

[8] = test system: Triticum aestivum (TRZAS); experiment: as above; conditions: vs untreated controls
Summary of the method: as §3

How did the pest or weed control at 1.25 g/ha ([1]; dosage 1.25 g/ha) turn out when `COCCOC(=O)C(C)Oc1ccccc1Sc1cc(-n2c(=O)cc(C(F)(F)F)n(C)c2=O)c(F)cc1Cl` (racemic) [I.2-1, 2-Methoxyethyl (2RS)-2-[2-({2-chloro-4-fluoro-5-[3-methyl-2,6-dioxo-4-(trifluoromethyl)-3,6-dihydropyrimidin-1(2H)-yl]phenyl}sulfanyl)phenoxy]propanoate] was run?
The pest or weed control at 1.25 g/ha was 100%.

And the pest or weed control at 5 g/ha ([1]; dosage 5 g/ha)?
The pest or weed control at 5 g/ha was 100%.

And the pest or weed control at 20 g/ha ([1]; dosage 20 g/ha)?
The pest or weed control at 20 g/ha was 100%.

What about the pest or weed control at 5 g/ha ([2]; dosage 5 g/ha) of the same compound?
Its pest or weed control at 5 g/ha is 80%.

What about the pest or weed control at 20 g/ha ([2]; dosage 20 g/ha) of the same compound?
Its pest or weed control at 20 g/ha is 100%.

What about the pest or weed control at 5 g/ha ([3]; 5 g/ha, read-out: Post-emergence action at 5 g/ha against ABUTH in %) of the same compound?
The pest or weed control at 5 g/ha was 100%.

And the pest or weed control at 20 g/ha ([3]; 20 g/ha, read-out: Post-emergence action at 20 g/ha against ABUTH in %)?
The pest or weed control at 20 g/ha was 100%.

And the pest or weed control at 1.25 g/ha (Veronica persica (VERPE); 1.25 g/ha)?
Its pest or weed control at 1.25 g/ha is 90%.

And the pest or weed control at 5 g/ha (Veronica persica (VERPE); 5 g/ha)?
Its pest or weed control at 5 g/ha is 100%.

What about the pest or weed control at 20 g/ha (Veronica persica (VERPE); 20 g/ha) of the same compound?
Its pest or weed control at 20 g/ha is 100%.

And the “Post-emergence action against STEME” value (Stellaria media (STEME); 1.25 g/ha)?
The value was 80%.

And the “Post-emergence action against STEME” value (Stellaria media (STEME); 5 g/ha)?
Its value is 100%.

What about the “Post-emergence action against STEME” value (Stellaria media (STEME); 20 g/ha) of the same compound?
The value was 100%.

What about the pest or weed control at 1.25 g/ha (Viola tricolor (VIOTR); 1.25 g/ha) of the same compound?
Its pest or weed control at 1.25 g/ha is 100%.

What about the pest or weed control at 5 g/ha (Viola tricolor (VIOTR); 5 g/ha) of the same compound?
Its pest or weed control at 5 g/ha is 100%.

And the pest or weed control at 20 g/ha (Viola tricolor (VIOTR); 20 g/ha)?
The pest or weed control at 20 g/ha was 100%.

And the pest or weed control at 1.25 g/ha ([4]; 1.25 g/ha, read-out: Post-emergence action at 1.25 g/ha against AMARE in %)?
Its pest or weed control at 1.25 g/ha is 100%.

And the pest or weed control at 20 g/ha ([4]; 20 g/ha, read-out: Post-emergence action at 20 g/ha against AMARE in %)?
The pest or weed control at 20 g/ha was 100%.

And the pest or weed control at 20 g/ha (Setaria viridis (SETVI); 20 g/ha, read-out: Post-emergence action against SETVI)?
Its pest or weed control at 20 g/ha is 100%.

And the pest or weed control at 1.25 g/ha (Setaria viridis (SETVI); dosage 1.25 g/ha, read-out: Post-emergence action against SETVI in %)?
The pest or weed control at 1.25 g/ha was 100%.

And the pest or weed control at 5 g/ha (Setaria viridis (SETVI); dosage 5 g/ha, read-out: Post-emergence action against SETVI in %)?
Its pest or weed control at 5 g/ha is 100%.

What about the pest or weed control at 20 g/ha [5] of the same compound?
Its pest or weed control at 20 g/ha is 100%.

What about the pest or weed control at 20 g/ha [6] of the same compound?
The pest or weed control at 20 g/ha was 80%.

What about the pest or weed control at 5 g/ha ([7]; dosage 5 g/ha) of the same compound?
Its pest or weed control at 5 g/ha is 80%.

What about the pest or weed control at 20 g/ha ([7]; dosage 20 g/ha) of the same compound?
Its pest or weed control at 20 g/ha is 100%.

What about the “Post-emergence action against ORYSA (crop plant compatibility)” value (Oryza sativa (ORYSA); 1.25 g/ha) of the same compound?
Its value is 10%.

What about the “Post-emergence action against ORYSA (crop plant compatibility)” value (Oryza sativa (ORYSA); 5 g/ha) of the same compound?
The value was 10%.

And the “Post-emergence action against ZEAMX (crop plant compatibility)” value (shortened to “Post-emergence action against ZEAMX”) (Zea mays (ZEAMX); 1.25 g/ha)?
Its value is 10%.

What about the “Post-emergence action against ZEAMX” value (Zea mays (ZEAMX); 5 g/ha) of the same compound?
The value was 10%.

What about the “Post-emergence action against ZEAMX” value (Zea mays (ZEAMX); 20 g/ha) of the same compound?
The value was 20%.

What about the “Post-emergence action against GLXMA in %” value (Glycine max (GLXMA); 1.25 g/ha) of the same compound?
Its value is 0%.

And the “Post-emergence action against GLXMA in %” value (Glycine max (GLXMA); 5 g/ha)?
Its value is 10%.

What about the “Post-emergence action against GLXMA in %” value (Glycine max (GLXMA); 20 g/ha) of the same compound?
Its value is 20%.

And the “Post-emergence action against TRZAS (crop plant compatibility)” value ([8]; 1.25 g/ha)?
The value was 20%.

What about the “Post-emergence action against TRZAS (crop plant compatibility)” value ([8]; 5 g/ha) of the same compound?
Its value is 20%.
